We go through 1 substance from patent US20240286179A1, “METHODS AND COMPOSITIONS FOR WASTE MANAGEMENT SYSTEMS” (priority 2023, published 2024).

Where two headings read alike, the source gives them in different places.

In experiment [1] the test system is chlorite dismutase (Cld) enzymes. As to conditions: for balloon inflation: creek water. The method, then:
A qualitative sampling device was created using: 300 mL plastic water bottle, 7-inch balloon and 3×⅛ in rubber band. Freshwater, wet creek bed soil (alluvial soil), and dry creek bank soil samples were collected from a stream habitat (Denton Creek in Coppell, Texas). Samples were placed in a sampling device with or without sodium chlorite (0 g, 16 g, or 32 g) to screen for the presence of Cld enzymes by observing inflation of balloon.

The test system is the same in experiment [2]. The method, then: Using water displacement method, the oxygen production and yield were calculated from 4 gm of sodium chlorite in a 300 mL wet creek bed soil sample (526 gm) placed in 500 mL Erlenmeyer flask with rubber stopper connected with rubber tubing to an inverted 1 L graduated beaker full of water and placed in a rectangular plastic tub with water.

Experiment [3] has as its system methanogenesis. The protocol:
A composting experiment was conducted in a 2-liter plastic soda bottle with 1 cup of organic food waste from kitchen waste with coffee grounds, 1 cup of leaves or grass clippings, 1 cup of shredded paper, and 4 cups of wet creek bed soil with 16 g of sodium chlorite (9.6 g/kg soil concentration) or 4 cups of wet creek bed soil without sodium chlorite. Gas produced in this experiment was collected using water displacement method. The %/Vol of methane was measured with a portable multi 4 gas detector with air gas sampling pump.
The LEL of CH4 is 5% of gas volume.

In experiment [4] the test system is chlorite dismutase (Cld) enzymes. As to conditions: 16 g NaClO2 (30 g/kg). The method, then: A qualitative reactor for detection of gas production was designed and constructed using: 300 mL plastic water bottle, 7-inch balloon and 3×⅛ in rubber band. The surface creek soil, deep creek soil, and landfill soil cover samples were placed in qualitative reactor with 16 g NaClO2 (30 g/kg soil concentration) and without any NaClO2 to screen for the presence of Cld enzymes by observing the inflation of balloon indicating biogas production.

The subject of experiment [5] is methanogenesis. The method, then: An anoxic composting reactor was designed and constructed that comprised of a 2-liter plastic soda bottle attached to a 200 ml foil gas bag for quantitative gas analysis using gas chromatography. Composting experiments in anoxic composting reactor were conducted with 1 cup of organic food waste from kitchen waste with coffee grounds, 1 cup of leaves or grass clippings, 1 cup of shredded paper, and 4 cups of surface creek soil with 16 g of NaClO2 (9.6 g/kg soil concentration) or 4 cups of surface creek soil without NaClO2 or 4 cups of landfill cover soil with 16 g of NaClO2, or 4 cups or landfill cover soil without NaClO2.
Volumes of gas in the foil bags were estimated over a 3-week period. The gas samples were analyzed for fixed gases (hydrogen, oxygen, nitrogen, carbon monoxide, methane, and carbon dioxide) according to modified EPA Method 3C (single injection) using a gas chromatograph equipped with a thermal conductivity detector by ALS Environmental (Simi Valley, CA).
The source holds these as a separate data set.

Where [6] appears, read: wet creek bed soil with 16 g NaClO2 (9.6 g/kg).

Turning to sodium chlorite [NaClO2], the “time to rapid balloon inflation” value in experiment [1] (alluvial creek bed soil, 16 g (0.053 g/ml) NaClO2) is at most 6 h; in experiment [4] (deep creek soil), at most 6 h; in experiment [4] (surface creek soil), at most 6 h. The balloon inflation result in experiment [1] (16 g (0.053 g/ml) NaClO2, after 2 days) was “no balloon inflation”; in experiment [1] (32 g (0.11 g/ml) NaClO2, after 2 days), “no balloon inflation”; in experiment [4] (landfill cover soil), “did not show any balloon inflation”. Also, the measurable gas production in experiment [2] (4 g NaClO2 in 526 g creek bed soil (7.6 g/kg), over a 65-hour period before plateauing) came out at 145 mL. Further, the “measurable volume as % of theoretical oxygen yield” value in experiment [2] (reduction of 4 grams NaClO2, calculated using the Ideal Gas Law) is “around 14%”. Further, the “Methane % Day 12” value with methanogenesis [3] (Volume %, 16 g NaClO2 (9.6 g/kg), Day 12) is listed as 0.75%. The “Methane % Day 23” value in the experiment with methanogenesis [3] (Volume %, 16 g NaClO2 (9.6 g/kg), Day 23) amounted to 0%. In the experiment on methanogenesis [3] (Volume %, 16 g NaClO2 (9.6 g/kg), Day 34), the “Methane % Day 34” value is listed as 0%. For the same substance, the “time at which gas production plateaued” value in the experiment with methanogenesis [3] (setting [6]) is “about 134 hours”. For the same substance, in the experiment with methanogenesis [3] (setting [6]), the “time at which gas production was noted after set-up” value is on record as “one”. For the same substance, in the experiment with methanogenesis [3] (setting [6]), the “time within which most of the measurable gas production occurred” value was at most 46 h. In the experiment on methanogenesis [5] (P-value=0.037, one-tailed paired t test), the “millimoles of methane generated, creek reactors without NaClO2 compared with creek reactors with NaClO2” value is recorded as “significantly higher”. In addition, the “volume of biogas produced” value in the experiment on methanogenesis [5] (creek soil reactors with NaClO2, spread +/−81, P=0.009 vs without NaClO2) was 328 mL. In addition, the “CO2 levels in gas” value in the experiment with methanogenesis [5] (landfill soil cover samples with or without NaClO2) was “lower levels of CO2”; with methanogenesis [5] (surface creek soil, 16 g NaClO2 (9.6 g/kg)) it was “increasing levels of CO2”. The “onset of gas production” value with methanogenesis [5] (surface creek soil, 16 g NaClO2 (9.6 g/kg), over a 60-hour period) was “immediate gas production”.
